Measured values reported in patent US8008490B2, “Polymorphic forms of aripiprazole and method” (Sandoz AG, priority 2005, dated 2011).

Experiments:
[1] = Moisture sorption isotherm (hygroscopicity); type: physicochemical; conditions: FIG. 10
[2] = Solution mediated transformation of aripiprazole forms (thermodynamic stability); type: physicochemical; conditions: at temperatures at and below about 60° C.

O=C1CCc2ccc(OCCCCN3CCN(c4cccc(Cl)c4Cl)CC3)cc2N1 [Form X of aripiprazole, 7-[4-[4-(2,3-dichlorophenyl)-1-piperazinyl]butoxy]-3,4-dihydro-2(1H)-quinolinone]
conversion into a hydrated form of aripiprazole [1]: does not substantially convert into a hydrated form of aripiprazole | hygroscopicity [1]: low hygroscopicity | thermodynamic stability (Gibbs free energy relative to other forms of aripiprazole) [2]: lowest Gibbs free energy
